Laboratory results published in the Bradley open melting point set (2014).
Where “and” joins values, the source holds several entries; their conditions need not be identical. Equal entries are not always repeated.

Row | melting point | SMILES
1 | 173 °C | COc1ccc(Cl)cc1C(=O)NCCc1ccc(S(=O)(=O)NC(=O)NC2CCCCC2)cc1 [glybenzcyclamide]
2 | 134 °C | N=C(NCCCCCCNC(=N)NC(=N)Nc1ccc(Cl)cc1)NC(=N)Nc1ccc(Cl)cc1
3 | 136 °C | CCC(C)(C)C(=O)O[C@H]1C[C@@H](C)C=C2C=C[C@H](C)[C@H](CC[C@@H]3C[C@@H](O)CC(=O)O3)[C@H]21 [simvastatin]
4 | 114 °C | Oc1ccc(OCc2ccccc2)cc1 [Monobenzone]
5 | -25 °C | CCOC(=O)[C@H](C)O [ethyl l-lactate]
6 | -41 °C | SCCS [1,2-ethanedithiol]
7 | 75 °C | CC(C)Cc1ccc(C(C)C(=O)O)cc1 (stereo unspecified) [Ibumetin]
8 | -114 °C | CCO [Ethanol]
9 | 237 °C | N#Cc1ccc(-c2ccc(C#N)cc2)cc1 [p,p'-dicyanobiphenyl]
10 | 147 °C | CC(C)(C)OC(=O)NCC(=O)N(Cc1ccco1)C(C(=O)NCc1ccccc1)c1ccccc1 (stereo unspecified) [Ugi product 108C (UC)]
11 | 203 °C | Oc1ccnc2ccccc12 [4-hydroxyquinoline]
12 | -165 °C | C=CCCC [Pent-1-ene]
13 | 42 °C | CCCCCCS(=O)(=O)CC#N [N-hexylsulfonylacetonitrile]
14 | 53 °C | c1ccc(Nc2ccccc2)cc1 [N-Phenylaniline]
15 | 174 °C | CC12CCC(CC1=O)C2(C)C (stereo unspecified) [camphor]
16 | 297 °C | c1ccc(-c2nc3ccccc3[nH]2)cc1 [2-phenylbenzimidazole]
17 | 84 °C | C=CCc1ccccc1C(=O)O [2-prop-2-en-1-ylbenzoic acid]
18 | 165 °C | Cc1c(C)c(C)c(Br)c(C)c1C [1-bromo-2,3,4,5,6-pentamethylbenzene]
19 | -13 °C | C=CCCCCCCCCCCCC [Tetradec-1-ene]
20 | 95 °C | C=CCc1cc(OC)c(O)c(C(=O)NCCO)c1 [alibendol]
21 | 162 °C | O=C(O)c1ccccc1I [2-Iodobenzoic acid]
22 | -28 °C | CC(=O)Oc1c(C)c(C)c2c(c1C)CC[C@@](C)(CCC[C@H](C)CCC[C@H](C)CCCC(C)C)O2 [vitamin e acetate]
23 | 8 °C | COC(=O)CCCCC(=O)OC [Dimethyl adipate]

Row | melting point | SMILES
24 | -1 °C | CCCCCCCCCN [1-nonylamine]
25 | 162 °C | O=c1[nH]cnc2c1ncn2[C@H]1CC[C@@H](CO)O1 [didanosine]
26 | 177 °C | N#Cc1ccc[n+]([O-])c1 [3-cyanopyridine 1-oxide]
27 | 75 °C | Cn1c(=O)ccc2ccccc21 [1-methyl-2-quinolinone]
28 | 142 °C | CC(C)(C)c1cc(C#N)cc(C(C)(C)C)c1O [3,5-di-tert-butyl-4-hydroxybenzonitrile]
29 | 62 °C | CC(C)=NO [acetone oxime]
30 | 270 °C and 275 °C | O=C1CCC(N2C(=O)c3ccccc3C2=O)C(=O)N1 (stereo unspecified) [thalidomide]
31 | -61 °C | CN(C)C=O [N,N-dimethylformamide]
32 | 247 °C and 243 °C | c1ccc2c(c1)[nH]c1ccccc12 [carbazole]
33 | 135 °C | NC(=O)c1ccc(CO)cc1 [p-hydroxymethyl_benzamide]
34 | 47 °C | CCc1ccc(C)nc1N [2-amino-3-ethyl-6-methylpyridine]
35 | 105 °C | CC(CCc1oc2ccccc2c1-c1ccc(C)o1)=NO
36 | 170 °C | COc1cc2nnc(/C=C/C(C)=O)c(-c3ccc(C)o3)c2cc1OC
37 | 125 °C | CCOC(=O)CCC(C)C1CCC2C3C(=O)C(Br)C4CC(OC(C)=O)CCC4(C)C3CC(OC(C)=O)C12C (stereo unspecified) [ethyl 3,12-bis(acetyloxy)-6-bromo-7-oxocholan-24-oate]
38 | 13.5 °C | C=CC(=O)O [Acrylic Acid]
39 | 144 °C | COc1ccccc1NC(=O)/C=CC(=O)O [N-(2-methoxyphenyl)maleamic acid]
40 | 70 °C | COc1ccc(Cl)c(Cl)c1Cl [1-methoxy-2,3,4-trichlorobenzene]
41 | 186 °C | Brc1n[nH]c(Br)c1Br [3,4,5-tribromo-1h-pyrazole]
42 | 61 °C | CC(C)c1ncc([N+](=O)[O-])n1C [ipronidazole]
43 | 158 °C | O=C(O)c1ccc2ccccc2n1 [quinaldic acid]
44 | 205 °C | O=C(O)c1cc(O)ccc1O [2,5-Dihydroxybenzoic acid]
45 | 28 °C | c1ccc(Oc2ccccc2)cc1 [phenyl_ether]
46 | 89 °C | COc1ccc(/C=C/C(=O)c2ccccc2)cc1OC [3,4-dimethoxychalcone]

Row | melting point | SMILES
47 | 117 °C | COC(=O)CCC(C)C1CCC2C3CCC4CC(=O)CCC4(C)C3CCC12C (stereo unspecified) [methyl 3-oxocholan-24-oate]
48 | -4 °C | C=CCCCCCCCCCCCCC [1-pentadecene]
49 | 115 °C | Oc1cc(O)c(Cl)cc1Cl [4,6-dichlororesorcinol]
50 | 167 °C | CC(=O)NNC(N)=S [1-acetyl-3-thiosemicarbazide]
51 | 186 °C | NC(Cc1ccccc1)C(=O)O (stereo unspecified) [phenylalanine]
52 | 67 °C | CCCCCCCCCCCCCCCCCCCCCCCCCCCCCC [N-triacontane]
53 | -46 °C | NCc1ccccc1 [1-Phenylmethanamine]
54 | 95 °C | O=C(CO)[C@H](O)[C@@H](O)[C@H](O)CO [D-Sorbose]
55 | 33 °C | C[C@H](O)[C@@H](C)O [(2R,3S)-Butane-2,3-diol]
56 | 183 °C | CC(=O)NS(=O)(=O)c1ccc(N)cc1 [sulfacetamide]
57 | 55 °C | O=C(CCCc1ccccc1)c1ccccc1 [1,4-diphenyl-1-butanone]
58 | 96 °C | CCCOC(=O)c1ccc(O)cc1 [propyl 4-hydroxybenzoate]
59 | 130 °C | Clc1cccc(Cl)c1N=C1NCCN1 [clonidine]
60 | 148 °C | Cc1ccn(C(N)=O)n1 [1-carbamoyl-3-methylpyrazole]
61 | 116 °C | COc1ccc(-c2csc(C(C#N)=Cc3ccco3)n2)cc1
62 | 2 °C | NC1CCc2ccccc21 (stereo unspecified) [1-aminoindane]
63 | 59 °C | CCOC(=O)CNC(=O)c1ccccc1 [ethyl hippurate]
64 | 113 °C | CC(=O)Nc1ccccc1/C=C/c1ccccc1 [N-{2-[(E)-2-phenylethenyl]phenyl}acetamide]
65 | 112 °C | NCc1ccc2c(Br)cccc2c1 [1-(5-bromonaphthalen-2-yl)methanamine]
66 | -5 °C | C=Cc1cccc([N+](=O)[O-])c1 [3-nitrostyrene]
67 | 122 °C | Oc1ccc2ccccc2c1 [2-Naphthol]
68 | 235 °C | OB(O)c1c(F)cc(F)cc1F [2,4,6-trifluorobenzeneboronic acid]
69 | 127 °C | N#Cc1ccc(B(O)O)s1 [5-cyanothiophene-2-boronic acid]

Row | melting point | SMILES
70 | -20.8 °C | CCC(=O)O [Propionic acid]
71 | -140 °C | CCN(C)C [N,N-dimethylethylamine]
72 | 95 °C | CC(=O)c1cccc(O)c1 [3'-hydroxyacetophenone]
73 | 69 °C | [O-][n+]1ccccc1Cl [2-chloropyridine n-oxide]
74 | 89 °C | CC(=O)c1cccc(O)c1 [3-hydroxyacetophenone]
75 | 225 °C | CC(CC(=O)O)c1ccc(C(=O)O)cc1 (stereo unspecified) [4-(2-carboxy-1-methylethyl)benzoic acid]
76 | 183 °C | O=C(O)c1ccc(Cl)c([N+](=O)[O-])c1 [4-chloro-3-nitrobenzoic acid]
77 | 78 °C | CCNc1nsc2ccccc12 [etisazol]
78 | -153 °C | C=CC(C)CC (stereo unspecified) [3-methyl-1-pentene]
79 | -96 °C | CC(C)c1ccccc1 [cumene]
80 | 178 °C | CC1(C)[C@H]2CC[C@]1(C)C(=O)C2 [(1S)-camphor]
81 | 61 °C | CC(C)c1ncc([N+](=O)[O-])n1C [Ipronidazole]
82 | 122 °C | Cc1ccccc1C1(C#N)Cc2ccccc2C(=O)O1 (stereo unspecified)
83 | -133 °C | C/C=C/CCC [trans-2-hexene]
84 | 28 °C | N#Cc1cccc(CO)c1 [m-hydroxymethyl_benzonitrile]
85 | -95 °C | CCc1ccccc1 [ethylbenzene]
86 | 214 °C | COc1cc(C(=O)O)ccc1O [vanillic acid]
87 | 130 °C | NC(=O)c1cccnc1 [nicotinamide]
88 | 160 °C | O=[N+]([O-])c1ccc(Nc2ccccc2)c([N+](=O)[O-])c1 [2,4-Dinitro-N-phenylaniline]
89 | 43 °C | O=C(Oc1ccccc1)c1ccccc1O [phenyl salicylate]
90 | 72 °C | Cc1cccc(O)c1C [2,3-dimethylphenol]

Row | SMILES | melting point
91 | CC(=O)O[Si](C)(OC(C)=O)OC(C)=O [triacetoxy(methyl)silane] | 43 °C
92 | C[Si](C)(C)N=C=S [trimethylsilyl isothiocyanate] | -33 °C
93 | CCOC(=O)c1ccccc1N [ethyl_2-aminobenzoate] | 14 °C
94 | N#CC(CCc1ccc(Cl)cc1)(Cn1cncn1)c1ccccc1 (stereo unspecified) [fenbuconazole] | 125 °C
95 | C[C@]12CCC(O)CC1=CC(=O)[C@@H]1[C@@H]2CC[C@]2(C)C(=O)CC[C@@H]12 (stereo partly specified) [3-hydroxyandrost-5-ene-7,17-dione] | 238 °C
96 | Nc1ccc(Br)cc1 [4-Bromoaniline] | 64 °C
97 | CN1C(=O)C(=NNc2c(Br)cc(Br)cc2Br)C(=O)N(C)C1=O | 166 °C
98 | Oc1ccccc1-c1ccccc1 [o-phenylphenol] | 60 °C
99 | CCCCP(CCCC)CCCC [Tributylphosphine] | -60 °C
100 | Clc1nc(Cl)nc(Cl)n1 [cyanuric chloride] | 147 °C
101 | NCCc1ccccc1 [2-phenylethylamine] | -60 °C
102 | Clc1cc(Cl)c(Cl)cc1Cl [1,2,4,5-tetrachlorobenzene] | 140 °C
103 | COc1ccc(/C=C/[N+](=O)[O-])c(OC)c1 [2,4-dimethoxy-beta-nitrostyrene] | 100 °C
104 | c1cc2ccc3cccc4ccc(c1)c2c34 [pyrene] | 156 °C
105 | CCCCCCCCBr [1-bromooctane] | -55 °C
106 | c1ccc(P(c2ccccc2)c2ccccc2)cc1 [Triphenylphosphine] | 80.5 °C
